The values that follow come from ChEMBL document CHEMBL3352324, “Progress in the discovery and development of heat shock protein 90 (Hsp90) inhibitors” (J Med Chem, 2014).

The structures appear in SMILES notation. pIC50: −log10 of the molar value.

Series [1] in a line: Antiproliferative activity against human colon cancer cells. Type of series: functional, cell-based. The conditions noted are these: Cancer cell lines.
A short description of series [2]: Drug metabolism in human liver microsomes. Type of series: ADME. The following applies: read-out: Drug metabolism.
The next series addresses Heat shock protein HSP90 (Homo sapiens, UniProt P07900+P08238). As to the kind of experiment: Inhibition of HSP90 (unknown origin). Type of series: protein assay.
The next series relates to MCF7. As to the kind of experiment: Antiproliferative activity against human MCF7 cells. Type of series: functional, cell-based.
Series [3] can be described thus: Cytotoxicity against human ARPE19 cells. Type of series: cell-based. The following applies: ARPE-19.
For the next series, the system named is HUVEC. As to the kind of experiment: Cytotoxicity against HUVEC. Type of series: cell-based. The conditions noted are these: Homo sapiens.
In a further series the test system is Homo sapiens. In words: Toxicity in patient assessed as median survival time at 450 mg/m'2, iv administered per week. The conditions noted are these: in vivo. The class given is organism-based.

As for `O=C1CCCC/C=C/CCOC(=O)c2c(O)cc(O)c(Cl)c2C1`, the pIC50 in series [1] is 5.12. For the same compound, the metabolised in series [2] was 90%.

In series [1], `O=C1NCC/C=C/CCCC(C(=O)NCc2ccccc2)C(=O)Cc2c(Cl)c(O)cc(O)c21` (stereo unspecified) showed a negative-log IC50 (pIC50) of 6.22. For the same compound, in series [2], the metabolised was found to be 47%. For the same compound, the IC50 against Heat shock protein HSP90 amounted to 0.2 µM.

In the series on MCF7, `CC(=O)Oc1ccc(C(=O)O[C@@H]2Cc3c(O)cc(O)cc3O[C@@H]2c2ccccc2)cc1CC=C(C)C` showed a negative-log IC50 (pIC50) of 5.40.

In the case of `CO[C@H]1/C=C\C=C(/C)C(=O)NC2=C(c3ccccc3)C(=O)C(NCCN(C)C)=C(C[C@@H](C)C[C@H](OC)[C@H](O)[C@@H](C)/C=C(\C)[C@@H]1OC(N)=O)C2=O` (stereo in doubt), the pIC50 (in series [3]; with HUVEC) was more than 5.30 throughout.

Compound `O=C(O[C@@H]1Cc2c(O)cc(O)cc2O[C@@H]1c1cc(O)c(O)c(O)c1)c1cc(O)c(O)c(O)c1` [EPIGALOCATECHIN GALLATE] had a negative-log IC50 (pIC50) in the series with MCF7 of 4.13.

Take `C[C@@H]1C[C@H]2O[C@@H]2/C=C\C=C\C(=O)Cc2c(Cl)c(O)cc(O)c2C(=O)O1` [RADICICOL]: the metabolised in series [2] worked out at 83%.

`C=CCNC1=C2C[C@@H](C)C[C@H](OC)[C@H](O)[C@@H](C)/C=C(\C)[C@H](OC(N)=O)[C@@H](OC)/C=C\C=C(/C)C(=O)NC(=CC1=O)C2=O` [TANESPIMYCIN]: the MST in the series with Homo sapiens was found to be 232 days.
